Reference: patent US4203980A, “Benzylpyrimidine derivatives” (Hoffmann-La Roche Inc., priority 1977, dated 1980)
pIC50: −log10 of the molar value.

Biological target: DHFR (E. coli) (Escherichia coli, UniProt P0ABQ4)
Experiment: 50% inhibition of the bacterial dihydrofolic acid reductase (DHFR), E. coli
Type: biochemical
Source text: The compounds of formula I have antibacterial activity. More specifically, the compounds of formula I inhibit the bacterial dihydrofolic acid reductase (DHFR) and, moreover, potentiate the activity of sulfonamides and other dihydrofolic acid synthetase inhibitors. Exemplary of the sulfonamides which are potentiated by the compounds provided by the present invention are sulfadiazine, sulfadimethoxine, sulfadoxine, sulfamethoxazole, sulfisoxazole, sulfamoxole, 3-sulfanilamido-4,5-dimethylisoxazole, sulfalene, sulfamerazine, sulfameter, sulfamethazine and 6-methoxy-4-sulfanilamido-pyrimidine. […] Quantitatively, however, compared with known compounds, the compounds of formula I of the present invention are characterized by lower 50% inhibitory concentrations of the bacterial DHFR, for example, in the case of E. coli, and by substantially higher Q-values, that is 50% inhibition of the DHFR in the case of rats/50% inhibition of the DHFR in the case of E. coli, which represents a measurement of the selectivity of the inhibition of the bacterial DHFR.

SMILES | pIC50
C=C(C)c1c(OC)cc(Cc2cnc(N)nc2N)cc1OCC [Compound 3, 2,4-diamino-5-(3-ethoxy-4-isopropenyl-5-methoxybenzyl)-pyrimidine] | 8.49
C=C(C)c1c(OCC)cc(Cc2cnc(N)nc2N)cc1OCC [Compound 1, 2,4-diamino-5-(3,5-diethoxy-4-isopropenylbenzyl)-pyrimidine] | 8.66
C=C(C)c1c(OC)cc(Cc2cnc(N)nc2N)cc1OC [Compound 2, 2,4-diamino-5-(4-isopropenyl-3,5-dimethoxybenzyl)-pyrimidine] | 8.47
